According to patent US12435061B2 (priority 2020, dated 2025):
Converted amounts (≈) assume the structure as drawn. Where two headings read alike, the source gives them in different places.

Key:
[1] = target: hTRPV3 (Homo sapiens (Human), UniProt Q8NET8); test: Whole-cell patch clamp, hTRPV3 Phase 1 / Phase 2 currents; format: cell-based
How it was run: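 Currents are activated by 20 μM 2-APB or by perfusate at 28 °C or warmer, in Ringer's solution, and quantified at ±80 mV.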

[2] = Aqueous solubility assay in Normal Ringer Solution; details: Normal Ringer Solution; for solubility at 40 min: saline or isotonic, kinetic from dmso stock; for Solubility Ringer (nM): room temperature
Experimental: Following vortex and incubation for a sufficient time (e.g. 40 minutes at room temperature), solutions were filtered, quenched with acetonitrile, and analyzed by Liquid Chromotography. Solubility Limits were determined by comparison to a standard curve.

[3] = Metabolic Stability assay, rat liver microsomes; format: in vitro ADME
Experimental: Metabolic Stability assay: The metabolic stability was determined by adding compound dissolved in DMSO to human or rat, liver microsomes. Briefly, assays were run with a starting concentration of 1 μM test article. The reaction was started by addition of NADPH regeneration components at 37° C. at which time an aliquot was immediately quenched in ice-cold acetonitrile/MeOH/H2O solution. Reaction mixture was incubated at 37° C. on a shaker, and additional aliquots were taken at 7, 15, 30 and 60 minutes. Following quench and centrifugation, samples were analyzed on HPLC/MS/MS.

[4] = Phase 1 current, inward, whole-cell patch clamp, read-out: hTRPV3 Patch P1 Inwd
[5] = Phase 1 current, read-out: hTRPV3 (nM) (Phase 1)
[6] = Phase 2 current, inward, whole-cell patch clamp, read-out: hTRPV3 Patch P2 Inwd
[7] = Phase 2 current, read-out: hTRPV3 (nM) (Phase 2)

Chain of hTRPV3 (Q8NET8 whole entry): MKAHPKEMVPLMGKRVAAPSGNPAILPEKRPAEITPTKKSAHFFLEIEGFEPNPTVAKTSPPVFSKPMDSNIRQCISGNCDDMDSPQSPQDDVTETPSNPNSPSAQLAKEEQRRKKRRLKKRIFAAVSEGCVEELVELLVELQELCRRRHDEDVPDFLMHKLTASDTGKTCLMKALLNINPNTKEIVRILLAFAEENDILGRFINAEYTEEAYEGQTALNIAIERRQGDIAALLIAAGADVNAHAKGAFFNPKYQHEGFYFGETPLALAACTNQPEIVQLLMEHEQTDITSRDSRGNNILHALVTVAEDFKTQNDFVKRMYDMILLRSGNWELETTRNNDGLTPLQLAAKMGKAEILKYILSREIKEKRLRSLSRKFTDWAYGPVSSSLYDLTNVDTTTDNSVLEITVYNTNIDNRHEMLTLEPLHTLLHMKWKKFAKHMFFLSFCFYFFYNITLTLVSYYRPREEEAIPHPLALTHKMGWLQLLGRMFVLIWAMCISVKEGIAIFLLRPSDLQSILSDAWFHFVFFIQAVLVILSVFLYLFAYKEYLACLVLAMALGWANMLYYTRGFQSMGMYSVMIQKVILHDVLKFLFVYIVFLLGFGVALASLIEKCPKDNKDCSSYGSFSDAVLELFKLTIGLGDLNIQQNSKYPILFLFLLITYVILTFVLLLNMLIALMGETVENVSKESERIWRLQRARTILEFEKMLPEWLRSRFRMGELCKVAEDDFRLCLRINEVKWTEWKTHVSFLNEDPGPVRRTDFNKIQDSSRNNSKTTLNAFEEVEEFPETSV

Row | Compound | IC50 [1, 4] | IC50 [1, 5] | IC50 [1, 6] | IC50 [1, 7] | solubility at 40 min [2] | half-life at 1 μM ([3]; read-out: LM T1/2 (min) (rat)) | Solubility Ringer (nM) [2] | IC50 ([1]; hTRPV3 Patch P1 Inwd (nM)) | IC50 ([1]; read-out: hTRPV3 (nM) (Phase 1)) | IC50 ([1]; Phase 1 current, human TRPV3, read-out: hTRPV3 (nM) Phase 1) | half-life at 1 μM ([3]; read-out: LM T1/2 (min) rat)
1 | OCc1cc(C(O)c2ccccc2Cl)ccc1N1CC[C@H](Oc2ncccc2F)C1 (stereo partly drawn) [Compound 1-264, (2-chlorophenyl)(4-((S)-3-(3-fluoropyridin-2-yloxy)pyrrolidin-1-yl)-3-(hydroxymethyl)phenyl)methanol] | 10 to 100 nM | 54.1 nM | 10 to 100 nM | 79.3 nM | > 13.2 µM | 19.4 min |  |  |  |  | 
2 | CCc1ccccc1Oc1ccc(N2CC[C@H](Oc3ncccc3F)C2)c(CO)c1 [Compound 1-267, (S)-(5-(2-ethylphenoxy)-2-(3-(3-fluoropyridin-2-yloxy)pyrrolidin-1-yl)phenyl)methanol] | 10 to 100 nM | 19.1 nM |  |  | ~0.38 µM (≈ 0.155 µg/mL) | 30.6 min |  |  |  |  | 
3 | CCc1ccccc1Oc1ccc(N2CC[C@H](Oc3ncccc3C)C2)c(CO)c1 [Compound 1-268, (S)-(5-(2-ethylphenoxy)-2-(3-(3-methylpyridin-2-yloxy)pyrrolidin-1-yl)phenyl)methanol] | < 10 nM | 2.8 nM | < 10 nM | ~2.54 nM | 0.25 µM (≈ 0.101 µg/mL) | 22 min |  |  |  |  | 
4 | OCc1cc(Oc2ccccc2F)ccc1N1CC[C@H](Oc2ncccc2Cl)C1 [Compound 1-270, (S)-(2-(3-(3-chloropyridin-2-yloxy)pyrrolidin-1-yl)-5-(2-fluorophenoxy)phenyl)methanol] | < 10 nM | 9.39 nM | < 10 nM | 7.44 nM | 1 µM (≈ 0.415 µg/mL) | 24.3 min |  |  |  |  | 
5 | CCc1ccccc1Oc1ccc(N2CC[C@H](Oc3ccccn3)C2)c(CO)c1 [Compound 1-275] | 10 to 100 nM | 24.8 nM |  |  | ~1 µM (≈ 0.39 µg/mL) | 22.8 min |  |  |  |  | 
6 | Cc1ccc(C(=O)c2ccc(N3CC[C@H](Oc4ncccc4Cl)C3)c(CO)c2)cc1 [Compound 1-277, (S)-(4-(3-(3-chloropyridin-2-yloxy)pyrrolidin-1-yl)-3-(hydroxymethyl)phenyl)(p-tolyl)methanone] | 10 to 100 nM | 63 nM |  |  | 0.47 µM (≈ 0.199 µg/mL) | 15.7 min |  |  |  |  | 
7 | O=C(c1ccc(F)cc1)c1ccc(N2CC[C@H](Oc3ncccc3Cl)C2)c(CO)c1 [Compound 1-279, (S)-(4-(3-(3-chloropyridin-2-yloxy)pyrrolidin-1-yl)-3-(hydroxymethyl)phenyl)(4-fluorophenyl)methanone] | 10 to 100 nM | 56.9 nM |  |  | 1.2 µM (≈ 0.512 µg/mL) | 18.4 min |  |  |  |  | 
8 | Cc1cccc(C(=O)c2ccc(N3CC[C@H](Oc4ncccc4Cl)C3)c(CO)c2)c1 [Compound 1-282, (S)-(4-(3-(3-chloropyridin-2-yloxy)pyrrolidin-1-yl)-3-(hydroxymethyl)phenyl)(m-tolyl)methanone] | 10 to 100 nM | 62.3 nM |  |  | ~0.67 µM (≈ 0.283 µg/mL) | 16.1 min |  |  |  |  | 
9 | COC(c1ccc(F)cc1)c1ccc(N2CC[C@H](Oc3ncccc3Cl)C2)c(CO)c1 (stereo partly drawn) [Compound 1-289, (2-((S)-3-(3-chloropyridin-2-yloxy)pyrrolidin-1-yl)-5-((4-fluorophenyl)(methoxy)methyl)phenyl)methanol] | 10 to 100 nM | 66.2 nM |  |  | ~1.75 µM (≈ 0.775 µg/mL) | 9.22 min |  |  |  |  | 
10 | COCc1ccccc1Oc1ccc(N2CC[C@H](Oc3ncccc3Cl)C2)c(CCO)c1 [Compound 1-297, (S)-2-(2-(3-(3-chloropyridin-2-yloxy)pyrrolidin-1-yl)-5-(2-(methoxymethyl)phenoxy)phenyl)ethanol] | 10 to 100 nM | 56.6 nM |  |  | 1.4 µM (≈ 0.637 µg/mL) | 7.44 min |  |  |  |  | 
11 | OCc1cc(Oc2cccc(Cl)c2)ccc1N1CC[C@H](Oc2ccccn2)C1 [Compound 1-304] | 10 to 100 nM | 55.8 nM |  |  | ~1 µM (≈ 0.397 µg/mL) | 17.5 min |  |  |  |  | 
12 | OCCc1cc(Oc2ccccc2F)ccc1N1CC[C@H](Oc2ncccc2F)C1 [Compound 1-313, (S)-2-(5-(2-fluorophenoxy)-2-(3-(3-fluoropyridin-2-yloxy)pyrrolidin-1-yl)phenyl)ethanol] | 10 to 100 nM | 72.5 nM | 10 to 100 nM | 71.3 nM | ~2 µM (≈ 0.825 µg/mL) | 9.29 min |  |  |  |  | 
13 | CC(C)c1ccccc1Oc1ccc(N2CC[C@H](Oc3ccccn3)C2)c(CO)c1 [Compound 1-316] | < 10 nM | 7.77 nM |  |  | > 4 µM | 18.9 min |  |  |  |  | 
14 | CC(C)c1ccccc1Oc1ccc(N2CC[C@H](Oc3ccccn3)C2)c(CCO)c1 [Compound 1-317] | 10 to 100 nM | 20.8 nM |  |  |  | 12.1 min | BLQ |  |  |  | 
15 | CC(C)c1ccccc1Oc1ccc(N2CC[C@H](Oc3ncccc3Cl)C2)c(CCO)c1 [Compound 1-327, (S)-2-(2-(3-(3-chloropyridin-2-yloxy)pyrrolidin-1-yl)-5-(2-isopropylphenoxy)phenyl)ethanol] |  |  |  |  |  | 14.6 min | BLQ | 10 to 100 nM | 15.9 nM |  | 
16 | CCc1c(Cl)ncnc1Oc1ccc(N2CC[C@H](Oc3ncccc3Cl)C2)c(CO)c1 [Compound 1-358, (S)-(5-(6-chloro-5-ethylpyrimidin-4-yloxy)-2-(3-(3-chloropyridin-2-yloxy)pyrrolidin-1-yl)phenyl)methanol] | 100 to 1000 nM | 174 nM |  |  | ~2.1 µM (≈ 0.969 µg/mL) | 16.7 min |  |  |  |  | 
17 | NC(=O)c1cc(-c2ccccc2)ccc1N1CC[C@H](Nc2ncccc2Cl)C1 [Compound 1-377, (S)-4-(3-(3-chloropyridin-2-ylamino)pyrrolidin-1-yl)biphenyl-3-carboxamide] | 100 to 1000 nM | 360 nM | 100 to 1000 nM | 318 nM | > 3.2 µM | 35.6 min |  |  |  |  | 
18 | CCc1ccccc1Oc1ccc(N2CC[C@H](Nc3ncccc3Cl)C2)c(CO)c1 [Compound 1-380, (S)-(2-(3-(3-chloropyridin-2-ylamino)pyrrolidin-1-yl)-5-(2-ethylphenoxy)phenyl)methanol] | 10 to 100 nM | 25.6 nM |  |  |  | 20.9 min | BLQ |  |  |  | 
19 | Cc1ccccc1Oc1ccc(N2CC[C@H](Nc3ncccc3Cl)C2)c(CO)c1 [Compound 1-383, (S)-(2-(3-(3-chloropyridin-2-ylamino)pyrrolidin-1-yl)-5-(o-tolyloxy)phenyl)methanol] | 10 to 100 nM | 12.6 nM |  |  | ~0.35 µM (≈ 0.143 µg/mL) | 31.4 min |  |  |  |  | 
20 | OCCc1cc(C(O)c2ccccc2Cl)ccc1N1CC[C@H](Nc2ccc(F)cn2)C1 (stereo partly drawn) [Compound 1-390, 2-(5-((2-chlorophenyl)(hydroxy)methyl)-2-((S)-3-(5-fluoropyridin-2-ylamino)pyrrolidin-1-yl)phenyl)ethanol] | 100 to 1000 nM | 219 nM |  |  | > 13.6 µM | 7.23 min |  |  |  |  | 
21 | CCc1ccccc1Oc1ccc(N2CC[C@H](OCc3ncccc3C)C2)c(CO)c1 [Compound 1-398] |  | 187 nM |  | 64.8 nM | ~1.4 µM (≈ 0.586 µg/mL) | 5.19 min |  |  |  |  | 
22 | CC(C)c1ccccc1-c1ccc(C2CCN(C(=O)c3ccc(Cl)cn3)C2)c(CO)c1 (centres unmarked) [Compound 2-30] | < 10 nM |  |  |  | ~3.7 µM (≈ 1.61 µg/mL) |  |  |  |  | 2.68 nM | 13.9 min
